This is an account of results in patent publication US7163940B2, “Pyrazolopyridinyl pyrimidine therapeutic compounds” (SmithKline Beecham Corporation, priority 2000, dated 2007).

The term pIC50 denotes the IC50 on a negative log10 scale, so that one unit is a factor of ten. What is called melting point is the temperature, or range, at which the solid turns liquid.

pIC50: −log10 of the molar value.

The test system of the first data set is HSV-1. In words: HSV-1 replication in infected Vero 76 cells, viral DNA hybridization capture assay. In kind it is cell-based. The settings on record: Human alphaherpesvirus 1, Vero 76, HSV-1, Vero 76 cells, MOI=0.001, 40–48 hours incubation. The essentials:
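Vero 76 cells infected with HSV-1 (MOI 0.001, 45 min, 37 °C), then incubated with compounds 40–48 h in 2% FBS medium. Viral DNA in NaOH/detergent lysates measured by hybridisation capture onto UL13 plasmid with digoxigenin-labelled UL15 probe, anti-digoxigenin-HRP chemiluminescence.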
The molecule `CN(C)Cc1cc(-c2c(-c3ccc(F)cc3)nn3c(Cl)cccc23)nc(NC2CCCC2)n1` [Example 50, 4-[7-Chloro-2-(4-fluorophenyl)pyrazolo[1,5-α]pyridin-3-yl]-N-cyclopentyl-6-[(dimethylamino)methyl]-2-pyrimidinamine] had a negative logarithm of the IC50 (pIC50) of 5.30.

Regarding `Fc1ccc(-c2nn3c(Cl)cccc3c2-c2ccnc(NC3CC3)n2)cc1` [Example 79, 4-[7-Chloro-2-(4-fluorophenyl)pyrazolo[1,5-α]pyridin-3-yl]-N-cyclopropylpyrimidin-2-amine], the pIC50 is under 4.70.

On to `Cc1cc(-c2c(-c3ccc(F)cc3)nn3c(NC4CCCC4)cccc23)nc(N(C)C)n1` [Example 81, N-Cyclopentyl-3-[2-(dimethylamino)-6-methylpyrimidin-4-yl]-2-(4-fluorophenyl)pyrazolo[1,5-α]pyridin-7-amine], for which the negative logarithm of the IC50 (pIC50) was under 4.70.

Molecule `Fc1ccc(-c2nn3c(NC4CCCC4)cccc3c2-c2cc(-c3ccccc3)nc(NC3CCCC3)n2)cc1` [Example 82, N-Cyclopentyl-3-[2-(cyclopentylamino)-6-phenylpyrimidin-4-yl]-2-(4-fluorophenyl)pyrazolo[1,5-α]pyridin-7-amine] showed a negative-log IC50 (pIC50) of under 4.70.

In the case of `CSc1cccc2c(-c3cc(NC4CCCC4)ncn3)c(-c3ccc(F)cc3)nn12` [Example 83, N-Cyclopentyl-6-[2-(4-fluorophenyl)-7-(methylthio)pyrazolo[1,5-α]pyridin-3-yl]pyrimidin-4-amine], the pIC50 was 5.89.

`Fc1ccc(-c2nn3c(NC4CCCC4)cccc3c2-c2cc(NC3CCCC3)ncn2)cc1` [Example 84, N-cyclopentyl-3-[6-(cyclopentylamino)pyrimidin-4-yl]-2-(4-fluorophenyl)pyrazolo[1,5-α]pyridin-7-amine] showed a negative logarithm of the IC50 (pIC50) of 5.89.

System in the next data set: not given
Experiment: not given
Conditions: not given
Regarding `CN(C)Cc1cc(-c2c(-c3ccc(F)cc3)nn3c(Cl)cccc23)nc(NC2CCCC2)n1` [Example 50, 4-[7-Chloro-2-(4-fluorophenyl)pyrazolo[1,5-α]pyridin-3-yl]-N-cyclopentyl-6-[(dimethylamino)methyl]-2-pyrimidinamine], the melting point is 68 to 75 °C.
